Test results published in patent publication US20020091095A1, “Modulation of Fas and FasL expression” (priority 1999, published 2002).

Key:
Fas [1] = test: Fas expression at the cell surface by flow cytometry, Jurkat cells; format: cell-based; settings: Jurkat human leukemia T cells, 100 μg/ml sequence, 48 h, treated vs control cells
Method: (§1) Cancer cells and PBMCs were seeded in 6 well flat-bottom microplates and were maintained at 37° C. in a 5% CO2 atmosphere. Unless stated otherwise, 2×10^5 cells/ml were incubated for 48 h with 0 μg/ml (control) or 100 μg/ml ([…]) (treated) of the sequences.
(§2) Fas and FasL expression were measured by flow cytometry using anti-Fas FITC-conjugated monoclonal antibodies and anti-FasL PE-conjugated monoclonal antibodies in a FACScalibur Flow Cytometer (Becton Dickinson, San Jose, Calif., USA) using the CELLQuest program (Becton Dickinson).
(§3) Results are expressed as percentage (%) increase in the expression of Fas and of FasL measured on treated cells compared to control cells.
(§4) Jurkat human leukemia T cells are an atypical multi-drug resistant human suspension tumor cell model.

FasL [2] = test: FasL expression at the cell surface by flow cytometry, Jurkat cells; format: cell-based; settings: Jurkat human leukemia T cells, 100 μg/ml sequence, 48 h, treated vs control cells
Method: as §1, §2, §3, §4

Fas [3] = test: Fas expression at the cell surface by flow cytometry, PBMCs; format: cell-based, human; settings: 100 μg/ml sequence, 48 h, treated vs control cells
Method: (§5) Peripheral blood mononuclear cells (hereinafter, “PBMCs”) were isolated from human blood by Ficoll-Hypaque (Amersham Pharmacia Biotech, Baie d'Urfée, Québec, Canada) density gradient centrifugation.
as §1, §2, §3

FasL [4] = test: FasL expression at the cell surface by flow cytometry, PBMCs; format: cell-based, human; settings: 100 μg/ml sequence, 48 h, treated vs control cells
Method: as §5, §1, §2, §3

Fas [5] = test: Fas expression at the cell surface by flow cytometry, T-24 cells; format: cell-based, human; settings: T-24 bladder cancer cells, 100 μg/ml sequence, 48 h, treated vs control cells
Method: as §1, §2, §3
(§6) T-24 bladder cancer cells are a p53 mutated human cell line T-24 cells (1.0×10^5 cells/ml) were incubated with the 6 base sequences shown in Table 4.

FasL [6] = test: FasL expression at the cell surface by flow cytometry, T-24 cells; format: cell-based, human; settings: T-24 bladder cancer cells, 100 μg/ml sequence, 48 h, treated vs control cells
Method: as §1, §2, §3, §6

Fas [7] = test: Fas expression at the cell surface by flow cytometry, UMUC-3 cells; format: cell-based, human; settings: UMUC-3 bladder cancer cells, 100 μg/ml sequence, 48 h, treated vs control cells
Method: as §1, §2, §3
(§7) UMUC-3 bladder cancer cells are a P-glycoprotein overexpressing human cell line.

FasL [8] = test: FasL expression at the cell surface by flow cytometry, UMUC-3 cells; format: cell-based, human; settings: UMUC-3 bladder cancer cells, 100 μg/ml sequence, 48 h, treated vs control cells
Method: as §1, §2, §3, §7

Fas [9] = test: Fas expression at the cell surface by flow cytometry, OVCAR-3 cells; format: cell-based, human; settings: OVCAR-3 ovarian cancer cells, 100 μg/ml sequence, 48 h, treated vs control cells
Method: as §1, §2, §3
(§8) OVCAR-3 ovarian cancer cells are a p53 mutated, p21/waf-1/Cip deleted, metastatic human solid tumor model.

FasL [10] = test: FasL expression at the cell surface by flow cytometry, OVCAR-3 cells; format: cell-based, human; settings: OVCAR-3 ovarian cancer cells, 100 μg/ml sequence, 48 h, treated vs control cells
Method: as §1, §2, §3, §8

Fas [11] = test: Fas expression at the cell surface by flow cytometry, SK-OV-3 cells; format: cell-based, human; settings: SK-OV-3 ovarian cancer cells, 100 μg/ml sequence, 48 h, treated vs control cells
Method: as §1, §2, §3
(§9) SK-OV-3 ovarian cancer cells are a p53 mutated, p21/waf-1/Cip deleted, p15^ink4B,p16^ink4 deleted metastatic human solid tumor model.

FasL [12] = test: FasL expression at the cell surface by flow cytometry, SK-OV-3 cells; format: cell-based, human; settings: SK-OV-3 ovarian cancer cells, 100 μg/ml sequence, 48 h, treated vs control cells
Method: as §1, §2, §3, §9

Fas [13] = test: Fas expression at the cell surface by flow cytometry, LNCaP cells; format: cell-based, human; settings: LNCaP prostate cancer cells, 100 μg/ml sequence, 48 h, treated vs control cells
Method: as §1, §2, §3
(§10) LNCaP prostate cancer cells are a TGF-beta 1 receptor negative, […], metastatic human solid tumor model.

FasL [14] = test: FasL expression at the cell surface by flow cytometry, LNCaP cells; format: cell-based, human; settings: LNCaP prostate cancer cells, 100 μg/ml sequence, 48 h, treated vs control cells
Method: as §1, §2, §3, §10

Fas [15] = test: Fas expression at the cell surface by flow cytometry, MCF-7 cells; format: cell-based, human; settings: MCF-7 breast cancer cells, 100 μg/ml sequence, 48 h, treated vs control cells
Method: as §1, §2, §3
(§11) MCF-7 human breast cancer cells are a caspase-3 negative, estrogen-dependent human solid tumor model.

FasL [16] = test: FasL expression at the cell surface by flow cytometry, MCF-7 cells; format: cell-based, human; settings: MCF-7 breast cancer cells, 100 μg/ml sequence, 48 h, treated vs control cells
Method: as §1, §2, §3, §11

| Sequence | % INCREASE Fas (Fas [1]) [%] | % INCREASE FasL (FasL [2]) [%] | % INCREASE Fas (Fas [3]) [%] | % INCREASE FasL (FasL [4]) [%] | % INCREASE Fas (Fas [5]) [%] | % INCREASE FasL (FasL [6]) [%] | % INCREASE Fas (Fas [7]) [%] | % INCREASE FasL (FasL [8]) [%] | % INCREASE Fas (Fas [9]) [%] | % INCREASE FasL (FasL [10]) [%] | % INCREASE Fas (Fas [11]) [%] | % INCREASE FasL (FasL [12]) [%] | % INCREASE Fas (Fas [13]) [%] | % INCREASE FasL (FasL [14]) [%] | % INCREASE Fas (Fas [15]) [%] | % INCREASE FasL (FasL [16]) [%] |
| --- | --- | --- | --- | --- | --- | --- | --- | --- | --- | --- | --- | --- | --- | --- | --- | --- |
| AAGTAA [SEQ ID NO:7] | −4 | −21 | 13 | −26 | 16 | −10 | 6 | −1 | 16 | −2 | −12 | −22 | 0 | −16 | 12 | 21 |
| ATGTAT [SEQ ID NO:10] | 246 | 393 | 377 | 457 | 90 | 150 | 42 | 95 | 93 | 114 | 34 | 33 | 44 | 68 | 129 | 214 |
| CCGTCC [SEQ ID NO:8] | 107 | 151 | 1046 | 1147 | 282 | 459 | 55 | 149 | 83 | 95 | 58 | 32 | 0 | 311 | 200 | 322 |
| CTGTCT [SEQ ID NO:11] | 203 | 413 | 310 | 476 | 107 | 165 | 45 | 156 | 52 | 93 | 15 | 26 | 17 | 55 | 73 | 128 |
| GGAAGG [SEQ ID NO:14] | 67 | 88 | 112 | 162 | 46 | 14 | 1 | 8 | 15 | 1 | −15 | −31 | 26 | −4 | 62 | 84 |
| GGCCGG [SEQ ID NO:15] | 75 | 41 | 6 | −29 | 56 | 18 | 23 | 58 | 19 | −2 | 0 | −27 | 12 | −4 | 63 | 78 |
| GGTGGG [SEQ ID NO:4] | 61 | 22 | 57 | 59 | 106 | 29 | 62 | 113 | 41 | 14 | −1 | −17 | 21 | 8 | 106 | 110 |
| GGTTGG [SEQ ID NO:13] | 99 | 86 | −3 | −32 | 75 | 25 | 47 | 98 | 22 | 10 | 16 | −3 | 23 | −3 | 99 | 83 |
| GTGTGT [SEQ ID NO:2] | 52 | 43 | 94 | 99 | 93 | 77 | 72 | 154 | 77 | 69 | 60 | 24 | 34 | 5 | 155 | 135 |
| TCGTTC [SEQ ID NO:12] | 121 | 75 | 597 | 847 | 105 | 74 | 47 | 112 | 126 | 224 | 9 | −3 | 111 | 171 | 56 | 98 |
